# From US10561672B2, “Stable fixed dose pharmaceutical composition comprising mometasone and olopatadine” (GLENMARK SPECIALTY S.A., priority 2013, dated 2020)
# Columns and labels:
# [1] = Clinical trial, single-dose cross-over: pharmacokinetics of mometasone furoate (Example 6); format: in vivo; details: single dose nasal spray, human subjects
# From the text: (§1) The clinical trial was a randomized, single-center, single-dose, open-label, three-period, six-sequence, cross-over study to evaluate three treatments administered by nasal spray. […] The study consisted of a screening visit, 3 single-dose treatment periods with washout periods of 7 to 14 days between dosing in each treatment period, an early withdrawal visit if applicable, and a follow-up telephone call (or visit) 1 to 7 days after completing the third treatment period. A total of 30 subjects were randomized to 1 of 6 treatment sequences and received at least 1 dose of study drug. All 30 subjects were included in the safety analysis set and the pharmacokinetic subset. All but 2 subjects completed the study per protocol.
# [2] = Clinical trial, single-dose cross-over: pharmacokinetics of olopatadine (Example 5); format: in vivo; details: single dose nasal spray, human subjects
# From the text: as §1, with “as a” for “by”
Quantifiable concentrations observed until the last time point [1] [h],Quantifiable concentrations observed until the last time point [2] [h],SMILES
72,–,C[C@@H]1C[C@H]2[C@@H]3CCC4=CC(=O)C=C[C@]4(C)[C@@]3(Cl)[C@@H](O)C[C@]2(C)[C@@]1(OC(=O)c1ccco1)C(=O)CCl [mometasone furoate]
–,48,CN(C)CC/C=C1/c2ccccc2COc2ccc(CC(=O)O)cc21 [olopatadine]
